Laboratory results from PubChem BioAssay (NCI).
Several values for one entry are separate records, joined by “and”; a condition that tells them apart may be missing. Equal values may be shown once.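 Values below derive from 48-hour exposures of cells grown in 96-well plates, with endpoints linearly interpolated between the two concentrations bracketing the appropriate inhibition level. GI50 marks 50% less growth. Definition used: TGI = concentration required for complete inhibition of growth.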

Columns and labels:
Assay in all cases: NCI tumour cell line growth inhibition, 48 h
UACC-257 melanoma = test system: UACC-257 melanoma
OVCAR-8 ovarian = test system: OVCAR-8 ovarian
RXF 393 renal = test system: RXF 393 renal
NCI-H460 lung = test system: NCI-H460 lung
K-562 leukemia = test system: K-562 leukemia
A549 NSCLC = test system: A549 NSCLC
COLO 205 colon = test system: COLO 205 colon
SF-539 CNS = test system: SF-539 CNS
DU-145 prostate = test system: DU-145 prostate
MCF7 breast = test system: MCF7 breast

| SMILES | TGI (UACC-257 melanoma) | TGI (OVCAR-8 ovarian) | TGI (RXF 393 renal) | TGI (NCI-H460 lung) | TGI (K-562 leukemia) | TGI (A549 NSCLC) | TGI (COLO 205 colon) | TGI (SF-539 CNS) | GI50 (OVCAR-8 ovarian) | GI50 (RXF 393 renal) | GI50 (NCI-H460 lung) | GI50 (K-562 leukemia) | GI50 (DU-145 prostate) | TGI (DU-145 prostate) | GI50 (A549 NSCLC) | GI50 (COLO 205 colon) | GI50 (SF-539 CNS) | GI50 (MCF7 breast) | TGI (MCF7 breast) | GI50 (UACC-257 melanoma) |
| --- | --- | --- | --- | --- | --- | --- | --- | --- | --- | --- | --- | --- | --- | --- | --- | --- | --- | --- | --- | --- |
| C[C@H]1CC[P+](C)(c2ccccc2)C1 (stereo partly specified) | > 100 µM | > 100 µM | > 100 µM | > 100 µM | > 100 µM | > 100 µM | > 100 µM | > 100 µM | – | – | – | – | – | – | – | – | – | – | – | – |
| CCOC(=O)c1c(NC(=O)c2ccc(Cl)cc2)sc2c(CN(C)C)c(O)ccc12 | – | 19.2 µM | 13.4 µM | > 100 µM | 5.07 µM | 36.2 µM | 4.1 µM | 18.4 µM | 3.55 µM | 2.98 µM | 4.71 µM | 1.62 µM | 13.2 µM | 47.9 µM | 8.07 µM | 1.87 µM | 5.2 µM | 7.57 µM | > 100 µM | – |
| N#CCc1cccc(CC#N)c1Br | > 100 µM | > 100 µM | 93.7 µM | > 100 µM | > 100 µM | > 100 µM | > 100 µM | > 100 µM | – | – | – | – | – | – | – | – | – | – | – | – |
| O=C1CCC(=O)N1Sc1ccccc1 | > 100 µM | > 100 µM | > 100 µM | > 100 µM | > 100 µM | > 100 µM | > 100 µM | > 100 µM | – | – | – | – | – | – | – | – | – | – | – | – |
| CCCCCCCCCCCCCCCC[n+]1ccccc1 | 1.95 µM and 4.67 µM | 1.28 µM and 3.07 µM | 0.688 µM | 1.5 µM and 1.94 µM | 1.64 µM | 1.86 µM and 2.95 µM | 0.702 µM and 1.85 µM | 2.35 µM | 0.331 µM and 0.704 µM | 0.224 µM | 0.388 µM and 0.553 µM | 0.278 µM | 0.717 µM and 0.938 µM | 1.99 µM and 2.31 µM | 0.468 µM and 1.21 µM | 0.255 µM and 0.495 µM | 0.95 µM | – | – | 0.534 µM and 1.56 µM |
| CCN(c1ccccc1)[C@H]1C(=O)N(c2ccc([N+](=O)[O-])cc2)[C@H]1c1ccc(OC)cc1 | > 100 µM | > 100 µM | > 100 µM | > 100 µM | > 100 µM | > 100 µM | > 100 µM | > 100 µM | – | – | – | – | – | – | – | – | – | – | – | – |
| COc1ccc(-c2c(N)noc2-c2cc(OC)c3c(c2)OCCO3)cc1 | – | > 33.2 µM | 0.0467 µM | 11.9 µM | > 100 µM | > 41.6 µM | 0.0398 µM | 1.28 µM | 0.0212 µM | < 0.01 µM | < 0.01 µM | < 0.01 µM | 0.0202 µM | 0.193 µM | 0.0101 µM | < 0.01 µM | 0.0121 µM | < 0.01 µM | > 100 µM | – |
| O=NNc1ccc(S(=O)(=O)c2ccc3ccccc3c2)cn1 | > 100 µM | > 100 µM | – | > 100 µM | > 100 µM | > 100 µM | > 100 µM | > 100 µM | – | – | – | – | – | > 100 µM | – | – | – | – | > 100 µM | – |
| COCC(C(=O)OC1C/C=C/C=C/C(=O)OC(C(C)C(O)C(C)CCC(OC(=O)C(C)N(C)C)C(C)C(OC(C)=O)C(C)/C=C/N(C)C=O)C/C=C/C(OC)CC(C)C/C=C(\C)C(OC)CCC(C)C(O)C1C)N(C)C (stereo unspecified) | > 1 µM | – | 0.0177 µM | 0.00436 µM | 0.116 µM | 0.156 µM | – | < 0.0001 µM | < 0.0001 µM | < 0.0001 µM | < 0.0001 µM | < 0.0001 µM | < 0.0001 µM | 0.000156 µM | < 0.0001 µM | – | < 0.0001 µM | < 0.0001 µM | 0.06 µM | < 0.0001 µM |
| N#[N+]c1ccc(Nc2ccccc2)cc1 | > 50 µg/mL | > 50 µg/mL | > 50 µg/mL | – | > 50 µg/mL | > 50 µg/mL | > 50 µg/mL | > 50 µg/mL | > 50 µg/mL | > 50 µg/mL | – | > 50 µg/mL | > 50 µg/mL | > 50 µg/mL | > 50 µg/mL | > 50 µg/mL | > 50 µg/mL | > 50 µg/mL | > 50 µg/mL | > 50 µg/mL |
| COc1ccc(C)cc1NC(=S)C#N | > 100 µM | > 100 µM | > 100 µM | – | > 100 µM | > 100 µM | > 100 µM | > 100 µM | – | – | – | – | – | > 100 µM | – | – | – | – | > 100 µM | – |
| Nc1ccccc1C#Cc1ccccc1C#Cc1cccs1 | 53.2 µM | > 100 µM | > 100 µM | > 100 µM | 40.7 µM | > 100 µM | – | 32.9 µM | 42.7 µM | 18.2 µM | 37.3 µM | 15.5 µM | 20.6 µM | 48 µM | 16.9 µM | – | 16.1 µM | – | – | 18.1 µM |
| COc1cccc(/C=N\NC(=O)C(C)SC(C)C(=O)N/N=C/c2cccc(OC)c2)c1 (stereo unspecified) | > 100 µM | 70 µM | 28.6 µM | 23.2 µM | > 100 µM | 20.6 µM | > 63.9 µM | > 100 µM | – | – | – | – | – | – | – | – | – | – | – | – |
| C1=CC2CCC1CN2CCC1CNc2ccccc21 (stereo unspecified) | > 100 µM | > 100 µM | > 100 µM | – | > 100 µM | > 100 µM | – | > 100 µM | – | – | – | – | – | – | – | – | – | – | – | – |
| COc1ccc(C2NC(=S)NC3=C2CCOc2c3ccc3ccccc23)cc1 (stereo unspecified) | > 100 µM | > 100 µM | 48 µM | > 100 µM | > 100 µM | > 100 µM | > 100 µM | – | 32.6 µM | 1.57 µM | 7.88 µM | 32.4 µM | > 100 µM | > 100 µM | 39 µM | 53.8 µM | – | 5.32 µM | > 100 µM | 16.4 µM |
| Clc1ccc(CN2CCCN(Cc3ccc(Cl)cc3)C2c2cc3ccccc3c3ccccc23)cc1 | 56.1 µM | > 100 µM | > 100 µM | – | – | > 100 µM | 40.3 µM | > 100 µM | – | – | – | – | – | > 100 µM | – | – | – | – | > 100 µM | – |
| COc1ccc(Br)c(C(=O)N2CCc3ccccc32)c1N | > 100 µM | > 100 µM | > 100 µM | > 100 µM | > 100 µM | > 100 µM | > 100 µM | 97 µM | – | – | – | – | – | – | – | – | – | – | – | – |
| CCOC1Oc2ccc(C)cc2C(=O)/C1=C\Nc1ccc(S(N)(=O)=O)cc1 (stereo unspecified) | – | 27.7 µM | 21.3 µM | > 50 µM | > 50 µM | > 50 µM | 45.3 µM | 24.2 µM | 9.97 µM | 8.92 µM | 17 µM | 15.2 µM | 12.9 µM | 35.7 µM | 13.9 µM | 16.8 µM | 7.49 µM | 15.9 µM | > 50 µM | – |
